Molecular target: T1, human glutamate receptor GluR1-flip (Homo sapiens, UniProt P42261)
T1 construct: expressed in transfected cells; host or cells: Chinese Hamster Ovary (CHO) cells
Assay: Whole cell patch clamp on CHO cells expressing human GluR1-flip; glutamate-induced current desensitization
Assay type: cell-based
Conditions: 1 mM test compound co-applied with 10 mM L-glutamate after 30 seconds pre-incubation, hGluR1(i), whole cell voltage clamp
Description: In this experiment we investigated the influence of the test compounds on the membrane currents when determined electrophysiologically on Chinese Hamster Ovary (CHO) cells capable of expressing the human glutamate receptor GluR1-flip, obtained essentially as described by Fletcher E J & Lodge D, Pharmacol. Ther. 1996 70 (1) 65-89, the current through the channels being recorded using patch clamp technique in whole cell voltage clamp mode.
Current responses were induced by applying L-glutamate at a saturating concentration of 10 mM, and the modulatory effect of the test compound was evaluated by co-applying the test compound and L-glutamate upon a 30 seconds pre-incubation period, and comparing with […].

T1 sequence (P42261 19-906 isoform P42261-2 limits assumed): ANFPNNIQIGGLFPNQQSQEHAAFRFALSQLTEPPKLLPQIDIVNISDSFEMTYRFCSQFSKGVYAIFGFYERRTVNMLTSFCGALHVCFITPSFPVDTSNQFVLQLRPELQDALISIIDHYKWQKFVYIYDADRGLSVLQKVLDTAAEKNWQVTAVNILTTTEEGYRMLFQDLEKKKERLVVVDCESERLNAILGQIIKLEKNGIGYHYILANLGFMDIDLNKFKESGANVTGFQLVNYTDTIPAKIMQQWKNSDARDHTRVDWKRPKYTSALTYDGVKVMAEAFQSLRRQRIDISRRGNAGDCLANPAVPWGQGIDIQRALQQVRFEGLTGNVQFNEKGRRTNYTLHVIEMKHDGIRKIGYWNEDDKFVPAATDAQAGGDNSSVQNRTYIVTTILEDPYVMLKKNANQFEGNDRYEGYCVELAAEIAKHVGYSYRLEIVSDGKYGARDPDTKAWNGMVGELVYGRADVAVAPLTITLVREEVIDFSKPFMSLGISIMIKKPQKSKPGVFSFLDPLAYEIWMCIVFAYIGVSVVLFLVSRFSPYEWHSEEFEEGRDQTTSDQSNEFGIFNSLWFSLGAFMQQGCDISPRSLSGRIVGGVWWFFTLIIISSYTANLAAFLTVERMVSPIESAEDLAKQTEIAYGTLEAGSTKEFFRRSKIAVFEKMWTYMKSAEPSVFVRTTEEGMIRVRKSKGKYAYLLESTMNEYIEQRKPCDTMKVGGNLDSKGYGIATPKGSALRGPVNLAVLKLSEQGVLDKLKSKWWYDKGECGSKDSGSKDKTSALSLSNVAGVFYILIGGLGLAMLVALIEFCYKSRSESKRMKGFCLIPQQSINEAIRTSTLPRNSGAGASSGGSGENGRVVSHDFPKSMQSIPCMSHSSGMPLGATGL

## CC1CCCN(C(=O)c2ccc3nccnc3c2)C1 (racemic) [Compound A4, (±)-(3-Methyl-piperidin-1-yl)-guinoxalin-6-yl-methanone]
  degree of desensitization: 95.2+/−0.2%

## O=C(c1ccc2nccnc2c1)N1CCCCC1 [Reference compound, Piperidin-1-yl-quinoxalin-6-yl-methanone]
  degree of desensitization: 98.0+/−0.8%

Source: US20090286797A1, “Novel Quinoxaline Derivatives and Their Medical Use” (priority 2005, published 2009)
